The text below walks through data of ChEMBL document CHEMBL1938302, “Synthesis of novel histamine H4 receptor antagonists” (Bioorg Med Chem Lett, 2012).

Where “and” joins values, the source holds several entries; their conditions need not be identical. Equal entries are not always repeated. Calls of active or inactive are those of the source. The rule behind the calls is not given here.

The target of data set [1] is T1, Histamine H4 receptor (Homo sapiens, UniProt Q9H3N8). Put plainly: Antagonist activity at human histamine H4 receptor expressed in HEK293 cells assessed as rev inhibition of forskolin-stimulated cAMP accumulation by CRE-betalactamase reporter gene assay. It is filed as functional, cell-based. In general terms: cAMP levels reflect the balance of adenylyl cyclase and phosphodiesterase activity.
T1 sequence (Q9H3N8 whole entry): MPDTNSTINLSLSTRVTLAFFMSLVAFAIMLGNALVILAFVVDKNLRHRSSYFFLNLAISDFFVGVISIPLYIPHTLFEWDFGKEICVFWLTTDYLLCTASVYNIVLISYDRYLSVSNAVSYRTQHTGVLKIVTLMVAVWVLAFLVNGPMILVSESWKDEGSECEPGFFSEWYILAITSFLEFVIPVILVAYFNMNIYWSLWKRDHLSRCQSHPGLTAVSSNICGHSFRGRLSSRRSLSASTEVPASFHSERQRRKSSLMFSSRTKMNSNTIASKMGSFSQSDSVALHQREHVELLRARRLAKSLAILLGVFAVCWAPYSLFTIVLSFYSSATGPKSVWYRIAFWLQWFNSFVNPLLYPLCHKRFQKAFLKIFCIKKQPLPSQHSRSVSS

The target in another data set is Histamine H3 receptor (Homo sapiens, UniProt Q9Y5N1). Put plainly: Binding affinity to human histamine H3 receptor.
Chain of Histamine H3 receptor (Q9Y5N1 whole entry): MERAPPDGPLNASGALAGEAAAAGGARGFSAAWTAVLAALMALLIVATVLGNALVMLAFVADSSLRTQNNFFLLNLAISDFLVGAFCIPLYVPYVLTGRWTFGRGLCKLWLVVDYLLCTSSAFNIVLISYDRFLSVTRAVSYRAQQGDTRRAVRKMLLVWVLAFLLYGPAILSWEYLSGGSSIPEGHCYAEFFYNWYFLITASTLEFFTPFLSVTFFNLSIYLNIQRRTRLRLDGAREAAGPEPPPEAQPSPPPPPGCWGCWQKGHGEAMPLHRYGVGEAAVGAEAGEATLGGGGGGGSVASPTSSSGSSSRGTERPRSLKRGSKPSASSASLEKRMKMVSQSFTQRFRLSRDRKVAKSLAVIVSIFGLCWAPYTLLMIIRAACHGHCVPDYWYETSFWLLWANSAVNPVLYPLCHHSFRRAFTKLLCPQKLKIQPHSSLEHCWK
Data set [2] deals with T1, Histamine H4 receptor. The experiment in a line: Displacement of [3H]histamine from human recombinant histamine H4 receptor expressed in CHO cells coexpressing Ga15 by radioligand filtration binding assay. It is filed as cell-based. A general note: In a radioligand displacement assay an active substance lowers the binding of a labelled ligand.
Data set [3] concerns Rattus norvegicus. Put plainly: Volume of distribution in rat at 10 mg/kg, sc. It is filed as ADME, organism-based. More on the design: dose 10 mg/kg, route subcutaneous. The conditions noted are these: in vivo.
Data set [4] is described as follows: Metabolic stability in human liver microsomes. It is filed as ADME, Microsome. The settings on record: read-out: Stability.
In data set [5] the test system is Rattus norvegicus. The experiment in a line: Clearance in rat at 10 mg/kg, sc. More on the design: dose 10 mg/kg, route subcutaneous. Format: ADME, organism-based. The conditions noted are these: in vivo.
A short description of data set [6]: Half life in rat at 10 mg/kg, sc. It is filed as ADME, organism-based. More on the design: dose 10 mg/kg, route subcutaneous. The settings on record: in vivo.
Data set [7] is described as follows: Half life in rat. The conditions noted are these: in vivo. It is filed as ADME, organism-based.
A short description of data set [8]: Half life in rat at 3 mg/kg, sc. The settings on record: in vivo. It is filed as ADME, organism-based. More on the design: dose 3 mg/kg, route subcutaneous.
Data set [9] concerns Rattus norvegicus. The experiment in a line: Volume of distribution in rat at 3 mg/kg, sc. More on the design: dose 3 mg/kg, route subcutaneous. Format: ADME, organism-based. The conditions noted are these: in vivo.
A short description of data set [10]: Chemical stability of the compound in methanol. Format: physicochemical.
Data set [11] can be described thus: Half life in rat at 1 mg/kg, iv. Format: ADME, organism-based. More on the design: dose 1 mg/kg, route intravenous. The settings on record: in vivo.
For data set [12], the system named is Rattus norvegicus. The experiment in a line: Clearance in rat at 1 mg/kg, iv. More on the design: dose 1 mg/kg, route intravenous. Format: ADME, organism-based. The conditions noted are these: in vivo.
Data set [13] in a line: Volume of distribution in rat at 1 mg/kg, iv. The conditions noted are these: in vivo. It is filed as ADME, organism-based. More on the design: dose 1 mg/kg, route intravenous.
Data set [14] is described as follows: Oral bioavailability in rat. Format: ADME, organism-based. The conditions noted are these: in vivo.
Data set [15] can be described thus: Metabolic stability in rat liver microsomes. It is filed as ADME, Microsome. The conditions noted are these: read-out: Stability. (Microsomes from liver hold many membrane-bound enzymes, among them those of drug oxidation.)

On to `CN1CCN(C(=O)c2cn3cc(Cl)ccc3n2)CC1`, for which the Ki (as a rule, the dissociation constant of the complex between target and ligand, obtained from inhibition or displacement) is > 11.4 µM on Histamine H4 receptor [1], 28.6 µM on Histamine H3 receptor and 3.17 µM on Histamine H4 receptor [2].
Regarding `CN1CCN(C(=O)c2nc3cc(Cl)ccc3[nH]2)CC1`, the Ki on Histamine H3 receptor came to 20 µM. The compound further registered a Vd in the data set on Rattus norvegicus [3] of 23 L/kg. The microsomal CLint in data set [4] turned out to be 19 µL/min/mg. Besides, the clearance in the data set on Rattus norvegicus [5] worked out at 700 mL/min/kg. Further, in data set [6], the half-life (in general, how long it takes for the measured level to halve) was 42 min.
Turning to `CN1C[C@@H]2CN(C(=O)c3cc4cccnc4[nH]3)C[C@@H]2C1`, on Histamine H4 receptor [2], the Ki amounted to 0.973 µM.
As for `CN1CCN(C(=O)c2cc3cc(Cl)ccc3[nH]2)CC1` [JNJ-7777120], the Ki on Histamine H3 receptor is 15.3 µM and > 20 µM. Also, the half-life in [7] is 42 min; in [8], 12 min. The compound also had a Vd in the data set with Rattus norvegicus [9] of 2.3 L/kg.
On to `CN1C[C@@H]2CN3C(c4nc5cc(F)c(F)cc5[nH]4)=NC[C@H]3[C@@H]2C1`, for which the inhibition result on Histamine H4 receptor [1] and on Histamine H4 receptor [2] was “inactive” each time. Moreover, in data set [10], the Stability result is given as “Stable”.
With `O=C(c1nc2cc(Cl)ccc2[nH]1)N1C[C@H]2CNC[C@H]2C1`, the inhibitory constant (Ki) on Histamine H4 receptor [1] is 8.18 µM; on Histamine H4 receptor [2], 5.08 µM.
In the case of `Cc1c(F)ccc2nc(C(=N)N3C[C@H]4CN(C)C[C@H]4C3)[nH]c12`, the Ki on Histamine H4 receptor [1] came out at 0.0093 µM; at Histamine H4 receptor [2] it was 0.0046 µM. Also, the Stability result in data set [10] was “Unstable”.
Turning to `CN1C[C@@H]2CN(C(=N)c3nc4cc(F)c(F)cc4[nH]3)C[C@@H]2C1`, the half-life in data set [11] was 660 min. The figures for the Ki at Histamine H4 receptor [1], on Histamine H3 receptor and at Histamine H4 receptor [2] were 0.0172 µM, 3.09 µM and 0.0095 µM, respectively. Besides, the microsomal CLint in [4] was < 7 µL/min/mg. In addition, the clearance in the data set on Rattus norvegicus [12] came out at 31 mL/min/kg. This compound displayed a Vd in data set [13] of 48 L/kg. Moreover, the bioavailability (in general, dose-corrected exposure relative to a reference, in per cent) in data set [14] came to 20%. For the same compound, in data set [10], the Stability result is listed as “Unstable”.
For the compound `CN1C[C@@H]2CN(C(=N)c3nc4c(F)c(F)ccc4[nH]3)C[C@@H]2C1`, in [10], the Stability result is recorded as “Unstable”. Also, the Ki at Histamine H4 receptor [2] was 0.049 µM.
On to `CCN1C[C@@H]2CN(C(=O)c3nc4cc(Cl)ccc4[nH]3)C[C@@H]2C1`, for which the results for the Ki on Histamine H4 receptor [1] and at Histamine H4 receptor [2] were 3.3 µM and 1.96 µM, respectively.
In the case of `CN1C[C@@H]2CN(C(=O)c3nc4cc(F)ccc4[nH]3)C[C@@H]2C1`, the half-life in [11] was 42 min. Moreover, the Ki on Histamine H4 receptor [1] is 0.145 µM; at Histamine H3 receptor it was 15.5 µM. The microsomal CLint in [4] is < 7 µL/min/mg. Further, in the data set with Rattus norvegicus [12], the clearance turned out to be 161 mL/min/kg. Further, the Vd in data set [13] came out at 6.1 L/kg.
Consider `Clc1ccc2[nH]c(C3=NCCN3)nc2c1`, for which the inhibition entry at Histamine H4 receptor [1] and at Histamine H4 receptor [2] was “inactive” throughout. Besides, the Stability result in data set [10] was “Stable”.
As to `CN1C[C@@H]2CN(C(=O)c3nc4cc(Cl)ccc4[nH]3)C[C@@H]2C1`, the Ki stood at 0.218 µM on Histamine H4 receptor [1] and 0.129 µM on Histamine H4 receptor [2]. In addition, the figures for the microsomal CLint in data set [4] and in data set [15] were < 7 µL/min/mg and 36 µL/min/mg, respectively.
Turning to `CN1C[C@@H]2CN(C(=N)c3nc4cc(F)ccc4[nH]3)C[C@@H]2C1`, the figures for the Ki at Histamine H4 receptor [1], on Histamine H3 receptor and at Histamine H4 receptor [2] were 0.0091 µM, 1.19 µM and 0.0046 µM, respectively. The Stability entry in data set [10] is reported as “Unstable”.
For `CN1C[C@@H]2CN(C(=O)c3cc4cc(Cl)cnc4[nH]3)C[C@@H]2C1`, at Histamine H4 receptor [2], the Ki came out at 0.083 µM.
For `CN1C[C@@H]2CN(C(=N)c3nc4c(F)c(F)c(F)cc4[nH]3)C[C@@H]2C1`, the Ki was 0.02 µM at Histamine H4 receptor [1], > 20 µM at Histamine H3 receptor and 0.07 µM on Histamine H4 receptor [2]. Besides, the Stability result in [10] was “Unstable”.
`CN1C[C@@H]2CN(C(=O)c3nc4ccc(F)c(F)c4[nH]3)C[C@@H]2C1`: the Ki at Histamine H4 receptor [1] was 0.134 µM; at Histamine H4 receptor [2] it was 0.074 µM.
For `CN1CCN(C(=O)c2cn3ccncc3n2)CC1`, the Ki on Histamine H4 receptor [1] is > 20 µM; at Histamine H4 receptor [2], 20.1 µM.
Regarding `CN1C[C@@H]2CN(C(=N)c3nc4ccccc4[nH]3)C[C@@H]2C1`, the Ki on Histamine H4 receptor [1] amounted to 0.0124 µM; on Histamine H3 receptor, 3.81 µM; on Histamine H4 receptor [2], 0.0065 µM. Also, in data set [10], the Stability result is given as “Unstable”.
`CN1C[C@@H]2CN(C(=N)c3nc4cc(Cl)ccc4[nH]3)C[C@@H]2C1`: the Ki at Histamine H4 receptor [1] came out at 0.056 µM. The Stability entry in [10] was “Unstable”.
Turning to `CN1CCN(C(=O)c2cc3cccnc3[nH]2)CC1`, the Ki on Histamine H4 receptor [1] is > 29.9 µM; at Histamine H3 receptor, 36.6 µM; on Histamine H4 receptor [2], 3.1 µM.
With `CN1C[C@@H]2CN(C(=O)c3nc4cc(F)c(F)cc4[nH]3)C[C@@H]2C1`, the half-life in data set [11] is 48 min. For the same compound, the Ki on Histamine H4 receptor [1] is 0.236 µM; at Histamine H3 receptor, 17.9 µM. Also, the microsomal CLint in data set [4] was < 7 µL/min/mg; in data set [15] it was 40 µL/min/mg. The clearance in the data set on Rattus norvegicus [12] came out at 58 mL/min/kg.
Turning to `CN1C[C@@H]2CN(C(=O)c3nc4ccccc4[nH]3)C[C@@H]2C1`, the Ki is 0.189 µM at Histamine H4 receptor [1] and 0.102 µM on Histamine H4 receptor [2].
Regarding `Cc1c(F)ccc2nc(C(=O)N3C[C@H]4CN(C)C[C@H]4C3)[nH]c12`, the Ki at Histamine H4 receptor [1] is 0.097 µM; on Histamine H4 receptor [2], 0.052 µM. Also, the microsomal CLint was < 7 µL/min/mg in data set [4] and 214 µL/min/mg in data set [15].
As for `CN1C[C@@H]2CN(C(=O)c3cc4cc(Cl)ccc4[nH]3)C[C@@H]2C1`, the Ki at Histamine H3 receptor came out at 8.75 µM. In addition, in [4], the microsomal CLint is < 7 µL/min/mg.
On to `CC(C)N1C[C@H]2CN(C(=O)c3nc4cc(Cl)ccc4[nH]3)C[C@H]2C1`, for which the results for the Ki on Histamine H4 receptor [1] and on Histamine H4 receptor [2] were 4.49 µM and 2.67 µM, respectively.
`CN1C[C@@H]2CN(C(=O)c3cc4ccc(Cl)nc4[nH]3)C[C@@H]2C1`: on Histamine H4 receptor [2], the Ki stood at 2.09 µM.
